Consider one molecule from article PMC4795541, “A Rapid and Quantitative Flow Cytometry Method for the Analysis of Membrane Disruptive Antimicrobial Activity” (PLoS ONE, 2016).

Holding throughout (assay): MDC, flow cytometry Syto9/PI membrane disruption assay
Conditions in all cases: 90 min incubation, average of 3 assays ± SD

Experiment [1] has as its system S. aureus (MSSA) ATCC 29213. Format: cell-based, Staphylococcus aureus. An excerpt:
(§1) The bacterial strains; Fusobacterium nucleatum ATCC 25586, Streptococcus mutans Ingbritt, Staphylococcus aureus (MSSA) ATCC 29213; Staphylococcus aureus (MRSA) ATCC 43300; Enterococcus faecalis ATCC 29212; Enterobacter aerogenes ATCC 13048; Pseudomonas aeruginosa strain PAO1-LAC, ATCC 47085; Klebsiella pneumoniae ATCC 13883; Acinetobacter baumannii strain 2208, ATCC 19606; Escherichia coli ATCC 25922 lyophilised or glycerol stocks were obtained from the culture collection of the Oral Health Cooperative Research Centre, The Melbourne Dental School, University of Melbourne, Australia. These strains were selected for this study as they are widely used in antimicrobial studies and are considered to be important pathogens and major targets for antibiotic resistant studies. […] After overnight incubation, 0.5–2.0 mL of the starter culture was used to inoculate the appropriate fresh broth (200 mL) and growth monitored at 650 nm using a spectrophotometer (model 275E; Perkin-Elmer, Sydney, Australia) with culture purity checked by microscopic examination and culture. Bacteria were harvested during late exponential growth phase and viability and bacteria/mL determined using a BacLight viability kit (Invitrogen, Sydney, Australia) and a Quanta SC-MPL flow cytometer (Beckman coulter Pty, Ltd, Sydney, Australia). […]

For another experiment, the system named is E. faecalis ATCC 29212. Format: cell-based, Enterococcus faecalis.
Description: as §1

For the next experiment, the system named is E. aerogenes ATCC 13048. Format: cell-based, Enterobacter aerogenes.
Description: as §1

The test system of experiment [2] is P. aeruginosa strain PAO1-LAC, ATCC 47085. The class given is cell-based, Pseudomonas aeruginosa.
Description: as §1

A further experiment concerns K. pneumoniae ATCC 13883. The class given is cell-based, Klebsiella pneumoniae.
Description: as §1

For experiment [3], the system named is A. baumannii strain 2208, ATCC 19606. The class given is cell-based, Acinetobacter baumannii.
Description: as §1

The next experiment has as its system E. coli ATCC 25922. Format: cell-based, Escherichia coli.
Description: as §1

Structures are written as SMILES. Where a SMILES comes first, the peptide text is derived from it. [ ]: non-standard residue; d: D form. Phe(ol) = N[C@H](CO)Cc1ccccc1; Aib = CC(C)(N)C(=O)O

Turning to `CC(=O)NC(C)(C)C(=O)N1CCC[C@H]1C(=O)NC(C)(C)C(=O)N[C@@H](C)C(=O)NC(C)(C)C(=O)N[C@@H](C)C(=O)N[C@@H](CCC(N)=O)C(=O)NC(C)(C)C(=O)N[C@H](C(=O)NC(C)(C)C(=O)NCC(=O)N[C@@H](CC(C)C)C(=O)NC(C)(C)C(=O)N1CCC[C@H]1C(=O)N[C@H](C(=O)NC(C)(C)C(=O)NC(C)(C)C(=O)N[C@@H](CCC(=O)O)C(=O)N[C@@H](CCC(N)=O)C(=O)N[C@H](CO)Cc1ccccc1)C(C)C)C(C)C` [Alamethicin] (Ac-[Aib]P[Aib]A[Aib]AQ[Aib]V[Aib]GL[Aib]PV[Aib][Aib]EQ[Phe(ol)]; N-terminus assumed), the MDC is 30.3 ± 8.2 µM in experiment [1]; 48.4 ± 10.9 µM in the experiment with E. faecalis ATCC 29212; >250 µM with E. aerogenes ATCC 13048; >250 µM in experiment [2]; >250 µM in the experiment on K. pneumoniae ATCC 13883; >250 µM in experiment [3]. Besides, in the experiment on E. coli ATCC 25922, the MDC is >250 µM.
